From BindingDB's records for doi:10.1021/jm00055a010 (Salk Institute, 1993) come the findings set out here.

This assay has as its target T1, Neuropeptide Y receptor type 1 (Homo sapiens, UniProt P25929).
T1 sequence (P25929 whole entry): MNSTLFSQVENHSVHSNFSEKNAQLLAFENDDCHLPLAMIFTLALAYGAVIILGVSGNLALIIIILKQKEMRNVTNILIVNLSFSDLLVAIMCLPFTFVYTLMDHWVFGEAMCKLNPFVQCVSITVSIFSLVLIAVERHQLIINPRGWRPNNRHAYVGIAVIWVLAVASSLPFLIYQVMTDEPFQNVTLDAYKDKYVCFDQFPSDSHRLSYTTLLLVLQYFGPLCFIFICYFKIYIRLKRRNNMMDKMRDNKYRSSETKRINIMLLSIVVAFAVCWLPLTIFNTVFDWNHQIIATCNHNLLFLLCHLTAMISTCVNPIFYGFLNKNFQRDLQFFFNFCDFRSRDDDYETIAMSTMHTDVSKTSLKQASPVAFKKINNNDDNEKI
In words: Tested against neuropeptide Y1 receptors using SK-N-MC human neuroblastoma cells.

Turning to `CC[C@H](C)[C@H](NC(=O)[C@H](CC(C)C)NC(=O)[C@H](CC(N)=O)NC(=O)[C@@H](NC(=O)[C@H]1CNC(=O)CC[C@H](NC(=O)[C@@H](N)Cc2ccc(O)cc2)C(=O)N[C@@H](CO)C(=O)N[C@@H](CCCCN)C(=O)N2CCC[C@H]2C(=O)NCC(=O)N[C@@H](CCCN=C(N)N)C(=O)N[C@@H](Cc2c[nH]cn2)C(=O)N1)[C@@H](C)CC)C(=O)N[C@H](C(=O)N[C@@H](CCCN=C(N)N)C(=O)N[C@@H](CCC(N)=O)C(=O)N[C@@H](CCCN=C(N)N)C(=O)N[C@@H](Cc1ccc(O)cc1)C(N)=O)[C@@H](C)O`, the Ki was greater than 1 µM.
